This assay deals with MX-1 breast xenograft, nude mice, tumor weight T/C. Description: NCI In Vivo Anticancer Drug Screen. Data for tumor model Human Mammary Carcinoma MX-1 Xenograft (intrarenal inoculation) in NU/NU Swiss (nude) mice. Particulars: endpoint: mean tumor weight change, higher = larger tumour. The procedure:
The antitumor activity of compounds was measured in mice bearing transplantable tumors. Survival or tumor size were measured and the results are expressed as the measurement made in the treated group (T) divided by the measurement made in the vehicle treated control group (C). The tumor model used in this assay is Human Mammary Carcinoma MX-1 Xenograft (intrarenal inoculation) in NU/NU Swiss (nude) mice
(In general: Xenograft models place foreign cells or tissue in a host animal.)

[1] abbreviates: dose: 50.0 mg/kg/injection, schedule: Q01DX010 (sc), vehicle: Klucel (hydroxypropylcellulose) (HPC).
The mark [2] stands for this setting: dose: 100.0 mg/kg/injection, schedule: Q01DX010 (sc), vehicle: Klucel (hydroxypropylcellulose) (HPC).
Where [3] appears, read: dose: 12.5 mg/kg/injection, schedule: Q01DX010 (sc), vehicle: saline.
[4] abbreviates: dose: 25.0 mg/kg/injection, schedule: Q01DX010 (sc), vehicle: saline.
Setting [5] is: dose: 150.0 mg/kg/injection, schedule: Q04DX003 (sc), vehicle: Klucel (hydroxypropylcellulose) (HPC).
[6] abbreviates: dose: 300.0 mg/kg/injection, schedule: Q04DX003 (sc), vehicle: Klucel (hydroxypropylcellulose) (HPC).
Setting [7] is: dose: 75.0 mg/kg/injection, schedule: Q04DX003 (sc), vehicle: Klucel (hydroxypropylcellulose) (HPC).

“And” between values parts separate entries of the source, which are not always exact repeats. Identical values can stand only once. Results filed as inconclusive are left out.

Consider `O=C([CH-]C(=O)C(F)(F)F)c1ccccc1.O=C([CH-]C(=O)C(F)(F)F)c1ccccc1.O=C([CH-]C(=O)C(F)(F)F)c1ccccc1.O=C([CH-]C(=O)C(F)(F)F)c1ccccc1.[Eu+3].c1ccncc1`, for which the T/C is 197 % of control under setting [1]; 174 % of control under setting [2]; 97 % of control (dose: 200.0 mg/kg/injection, schedule: Q01DX010 (sc), vehicle: Klucel (hydroxypropylcellulose) (HPC)); 178 % of control (dose: 400.0 mg/kg/injection, schedule: Q01DX010 (sc), vehicle: Klucel (hydroxypropylcellulose) (HPC)).

Regarding `COc1cccc2c1C(=O)c1c(O)c3c(c(O)c1C2=O)C[C@H](O)C[C@@H]3OC1CC(N)C(O)C(C)O1` (stereo partly drawn), the T/C was 165 % of control (dose: 3.12 mg/kg/injection, schedule: Q01DX010 (sc), vehicle: saline); 83 % of control (dose: 6.25 mg/kg/injection, schedule: Q01DX010 (sc), vehicle: saline); 66 % of control under setting [3]; 81 % of control under setting [4].

In the case of `COc1cc2cc(c1Cl)N(C)C(=O)C[C@H](OC(=O)[C@H](C)N(C)C(C)=O)[C@]1(C)O[C@H]1[C@H](C)[C@@H]1C[C@@](O)(NC(=O)O1)[C@H](OC)C=C/C=C(\C)C2`, the T/C by setting is: (dose: 50.0 micrograms/kg/injection, schedule: Q01DX010 (sc), vehicle: Klucel (hydroxypropylcellulose) (HPC)) 99 % of control; (dose: 100.0 micrograms/kg/injection, schedule: Q01DX010 (sc), vehicle: Klucel (hydroxypropylcellulose) (HPC)) 67 % of control; (dose: 200.0 micrograms/kg/injection, schedule: Q01DX010 (sc), vehicle: Klucel (hydroxypropylcellulose) (HPC)) -74 % of control.

On to `O=[N+]([O-])O.O=[N+]([O-])O.[NH-]C1CCCCC1[NH-].[Pt+2]` (stereo not drawn), for which the T/C reads like this: (dose: 1.0 mg/kg/injection, schedule: Q01DX010 (sc), vehicle: dextrose) 62 % of control; (dose: 2.0 mg/kg/injection, schedule: Q01DX010 (sc), vehicle: dextrose) 27 % of control.

`CCC1(O)CC2CN(CCc3c([nH]c4ccccc34)C(C(=O)OC)(c3cc4c(cc3OC)N(C)C3C(O)(C(=O)NCCSSCCNC(=O)C5(O)C(O)C6(CC)C=CCN7CCC8(c9cc(C%10(C(=O)OC)CC%11CN(CCc%12c%10[nH]c%10ccccc%12%10)CC(O)(CC)C%11)c(OC)cc9N(C)C58)C76)C(O)C5(CC)C=CCN6CCC43C65)C2)C1` (stereo not drawn): the T/C was 101 % of control (dose: 1.5 mg/kg/injection, schedule: Q04DX003 (sc), vehicle: suspension in saline); 102 % of control (dose: 3.0 mg/kg/injection, schedule: Q04DX003 (sc), vehicle: suspension in saline); 70 % of control (dose: 6.0 mg/kg/injection, schedule: Q04DX003 (sc), vehicle: suspension in saline); 1 % of control (dose: 12.0 mg/kg/injection, schedule: Q04DX003 (sc), vehicle: saline); 73 % of control (dose: 12.0 mg/kg/injection, schedule: Q04DX003 (sc), vehicle: suspension in saline).

On to `C/C(=N/NC(N)=S)c1ccc2ccccc2c1`, for which the T/C runs as follows: (dose: 25.0 mg/kg/injection, schedule: Q01DX010 (sc), vehicle: saline with Tween-80) 75 % of control; (dose: 50.0 mg/kg/injection, schedule: Q01DX010 (sc), vehicle: saline with Tween-80) 81 % of control; (dose: 100.0 mg/kg/injection, schedule: Q01DX010 (sc), vehicle: saline with Tween-80) 29 % of control.

As for `N/C(=N\OC(=O)Nc1ccc(CSc2ccc(Cl)cc2)o1)c1ccccn1`, the T/C by setting is: (dose: 9.38 mg/kg/injection, schedule: Q04DX003 (sc), vehicle: saline) 62 % of control; (dose: 18.75 mg/kg/injection, schedule: Q04DX003 (sc), vehicle: saline) 66 % of control; (dose: 37.5 mg/kg/injection, schedule: Q04DX003 (sc), vehicle: saline) 40 % of control; under setting [5], 102 % of control; under setting [6], 97 % of control.

Consider `OC1CCCC2CCCNC12` (stereo not drawn), for which the T/C runs as follows: (dose: 37.5 mg/kg/injection, schedule: Q04DX003 (sc), vehicle: saline with Tween-80) 76 % of control; (dose: 75.0 mg/kg/injection, schedule: Q04DX003 (sc), vehicle: saline with Tween-80) 85 % of control.

In the case of `CS(=O)(=O)OCCN(CCOS(C)(=O)=O)c1ccc(C=O)cc1`, the T/C under setting [4] is -67 % of control and -51 % of control.

As to `Cc1cn(C2CC(O)C(CO)O2)c(=O)[nH]c1=O` (stereo not drawn), the T/C reads like this: (dose: 800.0 mg/kg/injection, schedule: Q04DX003 (sc), vehicle: saline) 105 % of control; (dose: 1600.0 mg/kg/injection, schedule: Q04DX003 (sc), vehicle: saline) 89 % of control; (dose: 3200.0 mg/kg/injection, schedule: Q04DX003 (sc), vehicle: saline) 50 % of control; (dose: 6400.0 mg/kg/injection, schedule: Q04DX003 (sc), vehicle: saline) 62 % of control.

As to `C=C(Cl)C(=NC(C)(C)C)Nc1ccccc1C`, under setting [7], the T/C is 96 % of control.

On to `O=c1[nH]c(=O)n(C2CC(O)C(CO)O2)cc1C(F)(F)F` (stereo not drawn), for which the T/C reads like this: (dose: 300.0 mg/kg/injection, schedule: Q04DX003 (sc), vehicle: saline) 77 % of control; (dose: 600.0 mg/kg/injection, schedule: Q04DX003 (sc), vehicle: saline) 72 % of control; (dose: 1200.0 mg/kg/injection, schedule: Q04DX003 (sc), vehicle: saline) 43 % of control; (dose: 2400.0 mg/kg/injection, schedule: Q04DX003 (sc), vehicle: saline) 29 % of control.

With `C/C=C1\C[C@@H]2C(OC)Nc3cc(O)c(OC)cc3C(=O)N2C1` (stereo partly drawn), the T/C is, setting by setting: (dose: 1.0 mg/kg/injection, schedule: Q04DX003 (sc), vehicle: saline) 78 % of control; (dose: 2.0 mg/kg/injection, schedule: Q04DX003 (sc), vehicle: suspension in saline) 23 % of control and 31 % of control; (dose: 4.0 mg/kg/injection, schedule: Q04DX003 (sc), vehicle: saline) 7 % of control and 26 % of control; (dose: 4.0 mg/kg/injection, schedule: Q04DX003 (sc), vehicle: suspension in saline) 1 % of control and 3 % of control; (dose: 8.0 mg/kg/injection, schedule: Q04DX003 (sc), vehicle: suspension in saline) -71 % of control.

As to `CCN(CC)c1ccc2cc(-c3nc4ccccc4n3C)c(=O)oc2c1`, the T/C was 119 % of control under setting [7], 104 % of control under setting [5] and 123 % of control under setting [6].

On to `NC1(C(=O)O)CCCC1`, for which the T/C is 103 % of control under setting [3]; 25 % of control and 41 % of control (dose: 50.0 mg/kg/injection, schedule: Q01DX010 (sc), vehicle: saline); 7 % of control and 8 % of control (dose: 100.0 mg/kg/injection, schedule: Q01DX010 (sc), vehicle: saline).

Consider `C[Si](C)(C)O/C=C1\CCCCC1=O`, for which the T/C by setting is: (dose: 200.0 mg/kg/injection, schedule: Q04DX003 (sc), vehicle: saline with Tween-80) 94 % of control; (dose: 400.0 mg/kg/injection, schedule: Q04DX003 (sc), vehicle: saline with Tween-80) 89 % of control.

As for `CN(C)c1nc(N(C)C)nc(N(C)C)n1`, the T/C (dose: 25.0 mg/kg/injection, schedule: Q01DX010 (sc), vehicle: Klucel (hydroxypropylcellulose) (HPC)) was 5 % of control; the T/C under setting [1] is 21 % of control; the T/C under setting [2] was -82 % of control; the T/C (dose: 600.0 mg/kg/injection, schedule: Q04DX003 (sc), vehicle: saline with Tween-80) is -87 % of control and -100 % of control.

Turning to `CC(C)CCCCCCCCCCCCC(=O)NCC(=O)NC1C(O)C(O)C(Nc2ncnc3nc[nH]c23)OC1C(O)CO` (stereo not drawn), the T/C was 158 % of control (dose: 0.31 mg/kg/injection, schedule: Q01DX010 (sc), vehicle: saline); 194 % of control (dose: 0.4 mg/kg/injection, schedule: Q01DX010 (sc), vehicle: saline); 105 % of control (dose: 0.63 mg/kg/injection, schedule: Q01DX010 (sc), vehicle: saline); 93 % of control (dose: 0.8 mg/kg/injection, schedule: Q01DX010 (sc), vehicle: saline); 80 % of control (dose: 1.25 mg/kg/injection, schedule: Q01DX010 (sc), vehicle: saline); 40 % of control (dose: 1.6 mg/kg/injection, schedule: Q01DX010 (sc), vehicle: saline).

On to `CC1/C=C/C=C/CC/C=C/C=C/C=C/C=C/C(OC2OC(C)C(O)C(N)C2O)CC2OC(CC(O)C(O)CCC(O)CC(O)CC(O)CC(=O)OC(C)C(C)C1O)CC(O)C2C(=O)O` (stereo not drawn), for which the T/C is 59 % of control (dose: 150.0 mg/kg/injection, schedule: Q04DX003 (ip), vehicle: saline with Tween-80) and 55 % of control (dose: 300.0 mg/kg/injection, schedule: Q04DX003 (ip), vehicle: saline with Tween-80).

(Values after PubChem BioAssay AID296 (DTP/NCI, 2004).)
